Read-outs that look alike come from different tables or passages of the source.
How the values were obtained:
[1] = target: T1, KCC3 (Homo sapiens, UniProt Q9UHW9); assay: Tl+ assay, HEK-293 cells expressing KCC3; format: cell-based; settings: read-out: concentration at which effects on KCC3 were seen (EC50 chart FIG. 1G)
T1 construct: expressed in transfected cells; host or cells: HEK-293
T1 sequence (Q9UHW9 1-1150): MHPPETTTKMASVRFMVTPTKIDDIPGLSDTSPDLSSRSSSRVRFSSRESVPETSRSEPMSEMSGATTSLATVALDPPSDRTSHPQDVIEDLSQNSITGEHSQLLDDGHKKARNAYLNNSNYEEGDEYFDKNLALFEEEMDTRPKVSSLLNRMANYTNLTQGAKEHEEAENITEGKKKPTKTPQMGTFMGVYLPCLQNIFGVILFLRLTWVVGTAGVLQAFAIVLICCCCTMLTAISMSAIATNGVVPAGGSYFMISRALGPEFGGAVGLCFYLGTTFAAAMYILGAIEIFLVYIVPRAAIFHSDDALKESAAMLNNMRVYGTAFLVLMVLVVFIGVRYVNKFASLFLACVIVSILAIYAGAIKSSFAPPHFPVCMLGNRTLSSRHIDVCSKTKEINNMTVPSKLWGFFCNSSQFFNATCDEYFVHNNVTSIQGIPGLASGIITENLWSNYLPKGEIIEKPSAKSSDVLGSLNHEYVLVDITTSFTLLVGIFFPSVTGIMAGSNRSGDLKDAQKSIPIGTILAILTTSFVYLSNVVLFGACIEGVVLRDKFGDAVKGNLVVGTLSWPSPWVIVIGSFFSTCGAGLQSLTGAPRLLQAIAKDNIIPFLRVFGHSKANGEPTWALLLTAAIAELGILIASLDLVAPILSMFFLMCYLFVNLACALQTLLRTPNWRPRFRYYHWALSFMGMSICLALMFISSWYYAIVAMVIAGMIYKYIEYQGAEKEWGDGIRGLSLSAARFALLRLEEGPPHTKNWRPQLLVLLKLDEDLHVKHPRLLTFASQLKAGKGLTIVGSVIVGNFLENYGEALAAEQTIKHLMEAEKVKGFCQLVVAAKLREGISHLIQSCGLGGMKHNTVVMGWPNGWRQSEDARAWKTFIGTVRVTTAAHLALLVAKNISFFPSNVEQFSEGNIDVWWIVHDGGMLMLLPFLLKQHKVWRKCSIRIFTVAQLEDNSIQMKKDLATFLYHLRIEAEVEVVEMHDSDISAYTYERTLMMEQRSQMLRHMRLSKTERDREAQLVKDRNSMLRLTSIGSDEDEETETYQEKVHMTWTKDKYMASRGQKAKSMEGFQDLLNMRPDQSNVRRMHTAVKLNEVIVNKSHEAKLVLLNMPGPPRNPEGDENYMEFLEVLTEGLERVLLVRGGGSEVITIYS
Procedure: FLIPR TI Flux assay. HEK-293 cells were washed with HBSS, and then incubated with loading buffer containing TI sensitive fluorescent dye (https://www.moleculardevices.com), 20 μM bumetanide 20 μM ouabain and 2.5 mM probenecid for 1 h at room temperature (RT) under control conditions or with drugs in the dark using a FlexStation 3 microplate reader (Molecular Devices) and imaged […] for 30 min. Stimulus buffer was added containing 5 mM K^+/0.5 mM Tl^+ and cells were imaged every 1.5 over a 190 second time course The initial rate Tl^+ uptake (Relative Fluorescence Units (RFU) per second) was determined following addition of the stimulus buffer as outlined previously (Conway et at, 2017, supra) (Lee et at, 2022, supra).
Several studies have shown that the activity and plasma membrane accumulation of KCC2 is potentiated via phosphorylation of S940, a process mediated by the activity of protein kinase C and protein phosphatase 1 (Lee et al., 2011, supra; Lee et al., J Biol Chem 282, 29777-29784 (2007); Moore et al., Proc. Natl. Acad. Sci. U.S.A. 115, 10166-10171 (2018); Moore et al., Trends Neurosci. 40, 555-571 (2017); Silayeva et al., Proc. Natl. Acad. Sci. U.S.A. 112, 3523-3528 (2015)). […] Compared to KCC2, effects on KCC3, KCC4, and NKCC1 were only seen at concentrations more than 35-fold that of KCC2 (>100 μM) (FIG. 1G).

[2] = PK studies, brain and plasma levels by LC-MS/MS; format: in vivo, mice; settings: for concentration at 30 min: 25 mg/kg IV bolus, within 30 minutes
Procedure: PK studies. […] Plasma and brain samples were rapidly frozen on dry ice.
Drug accumulation in the brain was examined following SC injection (FIG. 4C; 50 mg/kg).

With `C[C@@H]1CN(c2nc3c(c(Nc4ccc(C5CCCCC5)cc4)n2)COC3)CCO1` [Compound A, (R)—N-(4-cyclohexylphenyl)-2-(2-methylmorpholino)-5,7-dihydrofuro[3,4-d]pyrimidin-4-amine] the EC50 [1] was > 100 µM, the “time of maximal concentration in brain” value ([2]; 50 mg/kg SC) was 4 h and the “brain level 8h after SC injection” value ([2]; 50 mg/kg SC, 8h) was “a level that was maintained 8h later”. The “maximal concentration in brain” value ([2]; 50 mg/kg SC, at 4 hr) was > 600 nM, the concentration at 2 hr ([2]; mouse, brain, intraperitoneal, 50 mg/kg IP, 2 hr) was 2.67 ± 0.21 µM and the concentration at 4 hr ([2]; mouse, brain, intraperitoneal, 50 mg/kg IP, 4 hr) was 4.1 ± 0.13 µM. For the same compound, the concentration at 30 min ([2]; mouse, brain, read-out: concentration in brain) was 7.6 ± 4.4 µM and the concentration at 30 min ([2]; mouse, plasma, read-out: concentration in plasma) was 41.5 ± 11.5 µM.
